In US7378387B2, “Method of suppressing immune response by reducing intracellular content of glutathione in macrophages and monocytes” (Ajinomoto Co., Inc., priority 1997, dated 2008):

Key:
IL-12 = IL-12 production of MΦ from JaK3 knock out mice (Example 6); assay type: in vivo; details: stimulation of LPS or IFNγ; 1 mg/ml in city water, 24 days; no production in control group
Description: The amount of IL-12 was determined through bioassay using cells of human T cell strain 2D6 (J. Leukocyte Biology, vol. 61, p. 346, 1997).
2D6 cells which had been incubated in an RPMI 1640 medium containing 500 pg/ml of recombinant human IL-12, 50 μM of 2-mercaptoethanol and 10% FCS (fetal calf serum) were moved to a tube, and centrifugally washed three times with the above-mentioned medium without IL-12 and cell density was adjusted to 1×10^5/ml. The cell suspension was added in an amount of 100 μl each to a 96-well flat bottom plate containing a sample serially diluted in advance with an RPMI 1640 medium containing 50 μM of 2-mercaptoethanol and 10% FCS in an amount of 100 μl each. […] The cells a harvested, and the radioactivity was measured using a β counter (Matrix 96, supplied by Packard).
Macrophages (MΦ) were prepared from knock out mice deficient in a molecule participating in a signal transduction system from a receptor, and the function of the redox system was analyzed. […]
Peritoneal cells were harvested from three groups of knock out mice, and stimulated with LPS, IL-2, IFNγ and a combination thereof. The NO production, the IL-6 production and the IL-12 production were measured. […] Then, the IL-6 production was analyzed. In LPS stimulation, the amount was detected as 962 pg/ml in the knock out mice derived MΦ culture, 122 pg/ml in the NAC group, and 82 pg/ml in the GSH-OEt group. […]

[1] = system: spontaneous inflammatory bowel disease; assay: Spontaneous inflammatory bowel disease in γc knock out mice (Example 13); assay type: in vivo; details: −/Y mice, 20 μg/h twice a week, 5 times in total; for survival rate, Day 31 / survival rate, Day 45: non-administration 33%; for occurrence rate of intestinal inflammation, Day 14 / occurrence rate of intestinal inflammation, Day 31: non-administration 83%; for occurrence rate of intestinal inflammation, Day 45: non-administration 100%
From the text: In wild-type normal littermates of γc knock out mice (genetic phenotypes +/+, +/Y), no inflammatory bowel disease is observed at all under ordinary SPF breeding conditions. However, in γc knock out mice (genetic phenotypes, −/−, −/+ and −/Y), inflammatory bowel diseases occur very of ten. With respect to homo-knock out mice with −/− and −/Y phenotypes, approximately 70% thereof are spontaneously accompanied with inflammatory bowel diseases within 4 months. Also with respect to mice with +/− phenotype, approximately 60% thereof are spontaneously accompanied therewith within 6 months. That is, intestinal shortening, bloody stool, diarrhea, loose passage, anal prolapse and colonal hypertrophy are observed.
On the basis of the findings mentioned above, the effect of inhibiting spontaneous progression of inflammatory bowel disease in γc knock out mice was examined with respect to human Crohn disease and ulcerative colitis models. Saline, (NAC-OMe)2 or (NAC)2 (20 μg/h) was administered twice a week, 5 times in total, to each of 6 γc knock out male mice with […] and 6 γc knock out male mice with −/Y genotype which were inclined to have oxidative MΦ. It was examined whether or not the intestinal inflammation spontaneously progressed in −/Y was inhibited. In case of (NAC-OMe)2, on Day 14 of the administration, the occurrence rate of the non-administration −/Y group and the administration −/Y group was 83% to 25%; on Day 31, the occurrence rate was 83% to 25%, and the survival rate was 33% to 100%; and on Day 45, the occurrence rate was 100% to 25%, and the survival rate was 33% to 75%. In case of (NAC)2, it was 30, 40, 100, 40, 75% respectively.

[2] = system: macrophage-like cells from tissues of rheumatoid arthritis patients; assay: Intracellular GSH by ACAS in macrophage-like cells from tissues of rheumatoid arthritis patients (Example 17); assay type: cell-based, human; details: 3 hours; for relative ratio of oxidative macrophages (reduced amount of intracellular glutathione) compared with saline-added group: added at 2 mM
Description: Synovial tissue was aseptically sampled from tissues resected during joint surgery. The sampled synovial tissue was rinsed in phosphate buffer, from which the surface was peeled off in a petri dish containing the same phosphate buffer. Then, the resulting synovial tissue was cut into pieces with a pair of scissors. To the pieces were added 2% hyaluronidase (manufactured by Sigma), 0.2% DNase (derived from bovine pancreas) and 5% collagenase, for enzymatic treatment at 37° C. for 2 hours. After discarding the resulting debris, a cell fraction recovered by centrifugation was adjusted to 5×10^5 cells/ml in a phenol red-free DMEM culture medium supplemented with 10% FCS (manufactured by Nikken Biology Co.). For 3 hours, the cells were allowed to adhere to the plastic surface. Plastic surface adherent macrophage-like cells harvested with a rubber policeman were then subjected to rinsing in combination with centrifugation three times using the culture medium under ice cooling. The resulting cells were designated as synovial tissue-derived macrophages and were then subjected to the following experiments.
By the same manner as in Example 3, macrophage-like cells were collected from tissues of rheumatoid arthritis patients, and were then suspended and adjusted in a phenol red-free RPMI 1640 culture medium supplemented with 10% fetal calf serum to 3×10^6 cells/ml. The suspension was divided in 100-μl portions on Lab-Tek Chamber Slide (#136439; manufactured by NUNC, CO.), for culturing in 5% CO2 at 37° C. for 3 hours; after discarding the nonadherent cells, the 200-μl serum-free culture medium further containing any of the following chemical agents was fed to the resulting culture, for reaction for 3 hours; and then, the resulting culture was rinsed three times, followed by addition of the serum-free culture medium of 200 μl and addition of monochlorobimane to a final concentration of 10 μM, for reaction for 30 minutes. The amount of intracellular GSH was assayed by imaging analysis with an ACAS system (manufactured by Meridian Co.).

SMILES | amount of IL-12 (IL-12) | survival rate, Day 31 [1] | survival rate, Day 45 [1] | occurrence rate of intestinal inflammation, Day 14 [1] | occurrence rate of intestinal inflammation, Day 31 [1] | occurrence rate of intestinal inflammation, Day 45 [1] | relative ratio of oxidative macrophages (reduced amount of intracellular glutathione) compared with saline-added group [2] | relative ratio of oxidative macrophages (reduced amount of intracellular glutathione) compared with saline-added group ([2]; listed as glutathione ethyl ester) | induction of oxidative macrophage with the reduced amount of intracellular glutathione ([2]; added at 2 μM)
CC(=O)N[C@@H](CS)C(=O)O [NAC, N-acetylcysteine, reference compound] | 420 pg/mL | – | – | – | – | – | – | – | –
CC(=O)N[C@@H](CSSC[C@H](NC(C)=O)C(=O)O)C(=O)O [(NAC)2, N,N′-diacetylcystine] | – | 100% | 75% | 30% | 40% | 40% | – | – | –
CCOC(=O)CNC(=O)[C@H](CS)NC(=O)CC[C@H](N)C(=O)O [GSH-OEt, glutathione monoethyl ester] | 610 pg/mL | – | – | – | – | – | same action was also observed | decreased | –
COC(=O)[C@H](CSSC[C@H](NC(C)=O)C(=O)OC)NC(C)=O [(NAC-OMe)2, N,N′-diacetylcystine dimethyl ester] | – | 100% | 75% | 25% | 25% | 25% | – | – | confirmed
